Measurements taken from US6436960B1, “Farnesyl transferase inhibitors having a piperidine structure and process for preparation thereof” (LG Chemical Ltd., priority 1998, dated 2002).

Experiments:
Ras farnesyl transferase [1] = molecular target: T1, Ras farnesyl transferase (Rattus norvegicus, UniProt Q02293+Q04631); test: in vivo (cellular) Ras farnesyl transferase inhibitory activity, Rat2 cells expressing C-Harvey-Ras; format: cell-based
T1 construct: endogenous in cells; host or cells: Rat2 fibroblasts transformed with C-Harvey-Ras, or with H-Ras carrying the K-Ras C-terminal polybasic lysine domain
Procedure: (§1) In the present experiment, Rat2 cell line which expresses C-Harvey-Ras protein having transforming activity and Rat2 cell line(Korean patent application No. 97-14409) which is transformed with fused protein of H-Ras substituted with polybasic lysine domain at C-terminus of K-Ras were used. The experiment was performed by the modified Declue's method(Declue. J. E. et al., Cancer Research, 1991, 51, 712). Hereinafter, the experimental method will be described in more detail.
(§2) 3×10^5 cells of transformed Rat2 fibroblast cell line were sprayed on 60 mm cell cultivation dish and cultivated for 48 hours in a cell incubator at 37° C. and after 50% or more of density was reached, it was treated with the test compounds. The compound according to the present invention dissolved in dimethylsulfoxide(DMSO) was used. 1% concentration of dimethylsulfoxide was used in both control and test groups. After 4 hours from the treatment with the compound, methionine labeled with 150 μCi of radioactive isotope [^35S] per 1 ml of medium was added and after cultivating for 20 hours, the cells were washed with physiological saline water. The cells were lysed using 1 ml of cold cell lysis buffer solution(50 mM of Sodium HEPES buffer solution containing 5 mM of magnesium chloride, 1 mM of DTT, 1% NP 40, 1 mM of EDTA, 1 mM of PMSF, 2 μM of leupeptin, 2 μM of pepstatin A and 2 μM of antipain) and the supernatant wherein the cells were lysed was obtained by high-velocity centrifugation of 12,000 g×5 minutes. The amount of radioisotope in the supernatant was measured and standardized to obtain a quantitative result in immunoprecipitation reaction and then, Y13-259, a monoclonal antiboby specifically binding to Ras protein(Furth, M. E. et al., J. Virol, 1982, 43, 294) was added and reacted for 15 hours at 4° C. Protein A(combined with goat anti-murine imunoglobulin antibody)-agarose suspension was added to the solution and reacted for 1 hour at 4° C. and then, to remove the unspecific binding product, immunoprecipitates were washed with a buffer solution (50 mM Tris chloride buffer solution containing 50 mM of sodium chloride, 0.5% of sodium dioxycholate, 0.5% of NP 40 and 0.1% of SDS). The precipitates were added to a buffer solution for electrophoresis and boiled and then, electrophoresis was performed using 13.5% of SDS polyacrylamide gel. After electrophoresis, the gel was fixed and dried. Then, the gel was exposed to X-ray film, developed and printed. From the result of the experiment, intensities of band of protein combined with or without farnesyl of Ras protein were measured, and the concentration of the test compound inhibiting 50% of farnesyl binding was defined as CIC50, an in vivo Ras farnesyl transferase inhibitory activity.

Ras farnesyl transferase [2] = molecular target: T2, Ras farnesyl transferase (Homo sapiens, UniProt P49354+P49356); test: in vitro inhibitory activity for Ras farnesyl transferase, K-Ras substrate; format: biochemical
T2 construct: made in house
Procedure: In the present experiment, Ras farnesyl transferase produced by genetic recombination techniques according to the improved Pompliano's method (Pompliano et al., Biochemistry, 1992, 31, 3800) was used, […] Appln. No. 97-14409 was used after it has been purified according to the known method(see, Chung et al., Biochimica et Biophysica Acta, 1992, 278, 1129).
(§3) The enzyme reaction was performed in 50 μl of 50 mM Soduam HEPES buffer solution containing 25 mM of potassium chloride, 25 mM of magnesium chloride, 10 mM of DTT and 50 μM of zinc chloride. 1.5 μM of Ras substrate protein, 0.15 μM of tritium-farnesylpyrophosphate and 4.5 nM of farnesyl transferase were used.
(§4) More specifically, in the initial step, farnesyl transferase was added to the above buffer solution, reaction was maintained for 30 minutes at 37° C. and then the reaction was stopped by adding 1 ml of ethanol solution containing 1M HCl. The formed precipitates were adsorbed to GF/B filter using Hopper harvestor(Hopper #FH 225V) for filter-binding, washed with ethanol, and then radioactivity of the dried filter was measured using LKB β counter. Enzyme titer was measured in the unsaturated state of substrate where the concentrations of Ras substrate protein and farnesyl transferase have quantitative relationship. The compound according to the present invention dissolved in dimethyl sulfoxide(DMSO) was added to the reaction solution in an amount of less than 5% of the total reaction solution, and then the enzyme inhibitory activity thereof was measured. The enzyme inhibitory activity was represented by percentage of the amount of farnesyl incorporated into the Ras substrate protein in the presence of the test compound to that in the absence of the test compound. IC50 of the test compound was defined as the concentration at which 50% of the enzyme activity was inhibited.

Ras farnesyl transferase [3] = molecular target: T1, Ras farnesyl transferase; test: in vivo (cellular) Ras farnesyl transferase inhibitory activity, Rat2 cells transformed with H-Ras fused with polybasic lysine domain of K-Ras; format: cell-based
Procedure: as §1, §2

Ras farnesyl transferase [4] = molecular target: T2, Ras farnesyl transferase; test: in vitro inhibitory activity for Ras farnesyl transferase, H-Ras substrate; format: biochemical
Procedure: In the present experiment, Ras farnesyl transferase produced by genetic recombination techniques according to the improved Pompliano's method (Pompliano et al., Biochemistry, 1992, 31, 3800) was used, and Ras substrate(Ras-CVLS) protein described in Korean Patent Appln. No. 97-14409 was used after it has been purified according to the known method(see, Chung et al., Biochimica et Biophysica Acta, 1992, 278, 1129).
as §3, §4

[5] = Rat2 cell line expressing C-Harvey-Ras, concentration inhibiting 50% of farnesyl binding of Ras protein, read-out: H-Ras CIC50
[6] = recombinant Ras farnesyl transferase, K-Ras substrate, read-out: K-Ras IC50
[7] = Rat2 cell line transformed with H-Ras substituted with polybasic lysine domain at C-terminus of K-Ras, concentration inhibiting 50% of farnesyl binding, read-out: K-Ras CIC50
[8] = recombinant Ras farnesyl transferase, H-Ras substrate, tritium-farnesylpyrophosphate, 30 minutes at 37° C., read-out: H-Ras IC50

Row | Structure (SMILES) | IC50 (Ras farnesyl transferase [1]) | IC50 (Ras farnesyl transferase [2]) | IC50 (Ras farnesyl transferase [3]) | IC50 (Ras farnesyl transferase [4]) | IC50 (Ras farnesyl transferase [1]; [5]) | IC50 (Ras farnesyl transferase [2]; [6]) | IC50 (Ras farnesyl transferase [3]; [7]) | IC50 (Ras farnesyl transferase [4]; [8])
1 | O=C(c1ccn(Cc2cncn2CC2CCN(C(=O)OCc3ccccc3)CC2)c1)c1cccc2ccccc12 [Compound 36, 1-{1-[1-(Benzyloxycarbonyl)piperidin-4-yl]methyl-1H-imidazol-5-yl}methyl-3-(naphthalen-1-yl)carbonyl-1H-pyrrole] | 10000 nM | > 100000 nM | 50000 nM | 200 nM | – | – | – | –
2 | COCCN(C)C(=O)c1cn(Cc2cncn2CC2CCN(C(=O)NC3CCCCC3)CC2)cc1-c1cccc2ccccc12 [Compound 11, 1-{1-[1-(N-Cyclohexylcarbamoyl)-piperidin-4-ylmethyl]-1H-imidazol-5-ylmethyl}-3-[N-(2-methoxyethyl)-N-methyl]carbamoyl-4-(naphthalen-1-yl)-1H-pyrrole] | – | – | – | – | 10 to 100 nM | 10 to 1000 nM | 1000 to 50000 nM | 1 to 10 nM
3 | COCCN(C)C(=O)c1cn(Cc2cncn2CC2CCN(Cc3ccc(Oc4ccccc4)cc3)CC2)cc1-c1cccc2ccccc12 [Compound 34, 3-[N-(2-Methoxyethyl)-N-methyl]carbamoyl-4-(naphthalen-1-yl)-1-{1-[1-(4-phenoxybenzyl)piperidin-4-ylmethyl]-1H-imidazol-5-ylmethyl}-1H-pyrrole] | – | – | – | – | 10 to 100 nM | 10 to 100 nM | 1000 to 10000 nM | 11 nM
4 | COCCN(C)C(=O)c1cn(Cc2cncn2CC2CCN(C(=O)OCC(C)C)CC2)cc1-c1cccc2ccccc12 [Compound 35, 1-[1-(1-Isobutoxycarbonyl-piperidin-4-ylmethyl)-1H-imidazol-5-ylmethyl]-3-[N-(2-methoxyethyl)-N-methyl]carbamoyl-4-(naphthalen-1-yl)-1H-pyrrole] | – | – | – | – | 10 to 100 nM | 10 to 100 nM | 1000 to 10000 nM | 6 nM
5 | COCCN(C)C(=O)c1cn(Cc2cncn2CC2CCN(Cc3ccc(-c4ccccc4)cc3)CC2)cc1-c1cccc2ccccc12 [Compound 33] | – | – | – | – | 10 to 100 nM | 10 to 100 nM | 1000 to 10000 nM | 5 nM
6 | CN1CCN(C(=O)c2cn(Cc3cncn3CC3CCN(C(=O)OCc4ccc(F)cc4)CC3)cc2-c2cccc3ccccc23)CC1 [Compound 47] | – | – | – | – | 12.5 nM | 6 nM | 4000 nM | 3.3 nM
7 | COCCN(C)C(=O)c1cn(Cc2cncn2CC2CCN(C(=O)OC/C=C/c3ccccc3)CC2)cc1-c1cccc2ccccc12 [Compound 25] | – | – | – | – | < 100 nM | 27 nM | 1000 to 10000 nM | 6 nM
8 | CN1CCN(C(=O)c2cn(Cc3cncn3CC3CCN(C(=O)OC/C=C/c4ccccc4)CC3)cc2-c2cccc3ccccc23)CC1 [Compound 48] | – | – | – | – | 12.5 nM | 7 nM | 1000 nM | 3.3 nM
9 | CC(C)CCOC(=O)N1CCC(Cn2cncc2Cn2cc(C(=O)N3CCN(C)CC3)c(-c3cccc4ccccc34)c2)CC1 [Compound 46] | – | – | – | – | 25 nM | 16 nM | 10000 to 50000 nM | 2.2 nM
10 | CC(=O)N1CCC(Cn2cncc2Cn2cc(C(=O)N3CCN(C)CC3)c(-c3cccc4ccccc34)c2)CC1 [Compound 42, 1-[1-(1-Acetylpiperidin-4-yl)methyl-1H-imidazol-5-yl]methyl-3-(4-methylpiperazin-1-yl)carbonyl-4-(naphthalen-1-yl)-1H-pyrrole] | – | – | – | – | 25 nM | 6 nM | 10000 to 50000 nM | 1.2 nM
11 | COCCN(C)C(=O)c1cn(Cc2cncn2CC2CCN(C(=O)NCc3ccccc3)CC2)cc1-c1cccc2ccccc12 [Compound 9, 1-{1-[1-(N-Benzylcarbamoyl)-piperidin-4-ylmethyl]-1H-imidazol-5-ylmethyl}-3-[N-(2-methoxyethyl)-N-methyl]carbamoyl(naphthalen-1-yl)-1H-pyrrole] | – | – | – | – | 10 to 100 nM | 10 to 1000 nM | 1000 to 50000 nM | 1 to 10 nM
12 | CN1CCN(C(=O)c2cn(Cc3cncn3CC3CCN(C(=O)N(C)Cc4ccccc4)CC3)cc2-c2cccc3ccccc23)CC1 [Compound 52] | – | – | – | – | 50 nM | 10 nM | 10000 to 50000 nM | 2.3 nM
13 | COCCN(C)C(=O)c1cn(Cc2cncn2CC2CCN(C(=O)Cc3ccc(OC)cc3)CC2)cc1-c1cccc2ccccc12 [Compound 13, 1-{1-[1-(4-Methoxybenzylcarbonyl)-piperidin-4-ylmethyl]-1H-imidazol-5-ylmethyl}-3-[N-(2-methoxyethyl)-N-methyl]carbamoyl-4-(naphthalen-1-yl)-1H-pyrrole] | – | – | – | – | 10 to 100 nM | 10 to 1000 nM | 1000 to 50000 nM | 1 to 10 nM
14 | COCCN(C)C(=O)c1cn(Cc2cncn2CC2CCN(C(=O)OCCC(C)C)CC2)cc1-c1cccc2ccccc12 [Compound 23] | – | – | – | – | 10 to 100 nM | 20 nM | 1000 to 10000 nM | 8 nM
15 | COCCN(C)C(=O)c1cn(Cc2cncn2CC2CCN(C(=O)OCc3csc(C(C)C)n3)CC2)cc1-c1cccc2ccccc12 [Compound 26] | – | – | – | – | 10 to 100 nM | 10 to 100 nM | 10000 to 50000 nM | 4 nM
16 | COCCN(C)C(=O)c1cn(Cc2cncn2CC2CCN(C(=O)OC/C=C(\C)CCC=C(C)C)CC2)cc1-c1cccc2ccccc12 [Compound 21] | – | – | – | – | 10 to 100 nM | 50 nM | 1000 to 10000 nM | 10 to 100 nM
17 | COCCN(C)C(=O)c1cn(Cc2cncn2CC2CCN(C(=O)OCc3ccccc3)CC2)cc1-c1cccc2ccccc12 [Compound 5, 1-[1-(1-Benzyloxycarbonyl-piperidin-4-ylmethyl)-1H-imidazol-5-ylmethyl]-3-[N-(2-methoxyethyl)-N-methyl]carbamoyl-4-(naphthalen-1-yl)-1H-pyrrole] | – | – | – | – | 10 to 100 nM | 10 to 100 nM | 1000 to 10000 nM | 2.5 nM
18 | CN1CCN(C(=O)c2cn(Cc3cncn3CC3CCN(C(=O)N(C)C)CC3)cc2-c2cccc3ccccc23)CC1 [Compound 53, 1-{1-[1-(N,N-Dimethylcarbamoyl)piperidin-4-yl]methyl-1H-imidazol-5-yl}methyl-3-(4-methylpiperazin-1-yl)carbonyl-4-(naphthalen-1-yl)-1H-pyrrole] | – | – | – | – | 50 nM | 8.5 nM | 10000 to 50000 nM | 3 nM
